{
  "source": "paper PMC2820425",
  "about": "(Molecular Biology of the Cell, 2010)",
  "molecules": {"B1": {"name": "recombinant DYN-1(G40E) purified from SF21 insect cells (natural protein, C. elegans, UniProt P39055 1-830, looked up)", "chain": "MSWQNQGMQALIPVINRVQDAFSQLGTSVSFELPQIAVVEGQSAGKSSVLENFVGKDFLPRGSGIVTRRPLILQLIQDRNEYAEFLHKKGHRFVDFDAVRKEIEDETDRVTGQNKGISPHPINLRVFSPNVLNLTLIDLPGLTKVPVGDQPADIEQQIRDMILTFINRETCLILAVTPANSDLATSDALKLAKEVDPQGLRTIGVLTKLDLMDEGTDAREILENKLFTLRRGYVGVVNRGQKDIVGRKDIRAALDAERKFFISHPSYRHMADRLGTSYLQHTLNQQLTNHIRDTLPTLRDSLQKKMFAMEKDVAEYKNYQPNDPGRKTKALLQMVTQFNADIERSIEGSSAKLVSTNELSGGARINRLFHERFPFEIVKMEIDEKEMRKEIQYAIRNIHGIRVGLFTPDMAFEAIAKKQITRLKEPSLKCVDLVVNELANVIRQCADTMARYPRLRDELERIVVSHMREREQIAKQQIGLIVDYELAYMNTNHEDFIGFSNAEAKASQGQSAKKNLGNQVIRKGWLSLSNVSFVRGSKDNWFVLMSDSLSWYKDDEEKEKKYMLPLDGVKLKDIEGGFMSRNHKFALFYPDGKNIYKDYKQLELGCTNLDEIDAWKASFLRAGVYPEKQKAQEDESQQEMEDTSIDPQLERQVETIRNLVDSYMRIITKTIKDLVPKAVMHLIVNQTGEFMKDELLAHLYQCGDTDALMEESQIEAQKREEMLRMYHACKEALRIISEVNMSTLGDQPPPLPMSDYRPHPSGPSPVPRPAPAPPGGRQAPMPPRGGPGAPPPPGMRPPPGAPGGGGGMYPPLIPTRPGPGGPPPNMAPPR"}},
  "key": {"rat dynamin": {"target": "T1, rat dynamin (Rattus norvegicus, UniProt P21575)", "T1 sequence (P21575 1-864)": "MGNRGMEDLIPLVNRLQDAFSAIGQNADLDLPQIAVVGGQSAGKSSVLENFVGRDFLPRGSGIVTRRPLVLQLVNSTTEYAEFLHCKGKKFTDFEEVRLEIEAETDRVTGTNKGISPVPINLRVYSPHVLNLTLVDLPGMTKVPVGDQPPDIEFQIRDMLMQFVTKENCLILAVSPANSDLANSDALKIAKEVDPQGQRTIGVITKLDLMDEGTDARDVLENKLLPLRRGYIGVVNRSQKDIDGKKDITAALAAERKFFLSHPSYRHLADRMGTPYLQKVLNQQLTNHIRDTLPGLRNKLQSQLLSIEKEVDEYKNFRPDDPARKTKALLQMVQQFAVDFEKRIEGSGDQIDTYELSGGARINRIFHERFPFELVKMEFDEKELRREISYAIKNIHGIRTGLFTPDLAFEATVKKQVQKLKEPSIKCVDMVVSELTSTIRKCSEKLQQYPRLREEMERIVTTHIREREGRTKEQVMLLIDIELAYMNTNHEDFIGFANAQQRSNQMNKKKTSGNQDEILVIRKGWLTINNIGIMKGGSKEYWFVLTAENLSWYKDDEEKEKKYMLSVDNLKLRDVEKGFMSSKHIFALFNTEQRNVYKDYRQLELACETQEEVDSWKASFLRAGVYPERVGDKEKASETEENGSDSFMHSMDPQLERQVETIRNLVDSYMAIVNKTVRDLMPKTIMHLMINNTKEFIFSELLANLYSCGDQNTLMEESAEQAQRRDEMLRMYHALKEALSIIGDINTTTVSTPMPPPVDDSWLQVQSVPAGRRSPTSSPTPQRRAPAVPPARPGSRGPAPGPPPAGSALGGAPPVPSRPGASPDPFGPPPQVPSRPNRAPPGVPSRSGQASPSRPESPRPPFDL", "assay": "[…] release from [γ-32P]GTP, charcoal assay", "format": "biochemical", "conditions": "1 mM GTP, 150 mM NaCl, with or without lipid; labelled compound"}, "DYN-1": {"target": "T2, DYN-1 (Caenorhabditis elegans, UniProt P39055)", "T2 sequence (P39055 1-830)": "B1 chain with E40G", "assay": "[…] release from [γ-32P]GTP, charcoal assay", "format": "biochemical", "conditions": "1 mM GTP, 150 mM NaCl, with or without lipid; labelled compound"}, "[1]": {"target": "the molecule itself", "assay": "cryo-TEM of protein incubated with liposomes"}},
  "note": "Residue numbers refer to the chain shown, from its start. In names and notes the source's numbering stands.",
  "data": [
    {"molecule": "Nc1nc2c(ncn2[C@@H]2O[C@H](COP(=O)(O)OP(=O)(O)OP(=O)(O)O)[C@@H](O)[C@H]2O)c(=O)[nH]1", "note": "[GTP]", "values": [
      {"measurement": "32P release from [γ-32P]GTP, charcoal assay", "setting": "rat dynamin", "result": "DYN-1 displayed a low basal-level GTP hydrolysis activity as rat dynamin did"},
      {"measurement": "32P release from [γ-32P]GTP, charcoal assay", "setting": "DYN-1", "result": "C. elegans DYN-1 displayed a low basal-level GTP hydrolysis activity"}
    ]},
    {"molecule": "B1", "values": [
      {"measurement": "binding result", "setting": "[1]", "result": "binds"}
    ]}
  ]
}
